Like-named read-outs stand apart in the source and are kept apart here. Bounds are passed on as bounds.

For test [1], the target named is T1, CB2 receptor (Homo sapiens, UniProt P34972). The test can be described thus: Human cannabinoid receptor bonding inhibition test ([3H]CP55940), CB2. Also on record: expressed in transfected cells; membrane fraction. The test is classed as binding.
In test [2] the target is T2, CB1 receptor (Homo sapiens, UniProt P21554). The experiment in a line: Human cannabinoid receptor bonding inhibition test ([3H]CP55940), CB1. The test is classed as binding. Further details: expressed in transfected cells; membrane fraction.
Test [3] relates to scratching action induced by Compound 48/80. The experiment in a line: Anti-pruritic activity test by application (Compound 48/80 scratching). The settings on record: topical, read-out: Itching inhibition ratio % (Concentration %). The test is classed as in vivo, mouse (Crj:CD-1 (ICR)). Here is the method:
1) Preparation of the compound and the reagent: The compound being tested was dissolved in acetone (SIGMA). Compound 48/80 (SIGMA) was dissolved in physiological saline (m by Otsuka Pharmaceutical Co., Ltd.) so as to be 60 μg/mL.
2) Animals: Female Crj: CD-1 (ICR) mice of 6 to 10 age in week (Japan Charles Liver) were used as laboratory animals. The animals were fed in the barrier breeding room where […] in room temperature, 30 to 70% in humidity, and the light and shade condition existed every 12 hours and feed (CE-2: Japan Crea) and the drinking water were freely taken. The hair of dorsa (from the cervical region of the back to the center of the back) of the animals were cut with a hair clipper two days or more before the anti-pruritic activity is evaluated, those with no wound, rubefaction, and thickening of the skin on the dehaired part were chosen and supplied to the experiment on the day of the evaluation. 3) Evaluation procedures: The acetone solution of the compound being tested was applied by 50 μL on the dehaired parts of the mice with a pipeter. On the mice of the control group, 50 μL of acetone was applied. The 15 minutes later, 50 μL (corresponding to 3 μg) of Compound 48/80 solution was injected intradermally in the compound applied parts with the use of a injector (Terumo Corporation), the mice were individually put in five observation cages made of acrylate resin at once, and the scratching action (action of scratching the injection part by the hind leg) frequency during 30 minutes was measured. The evaluation was carried out in one group of 5 to 7 mice. 4) Data processing: The experiment results were shown by the mean values. The test of the significant difference of the compound applying group to the control group was conducted with Welch's t-test, and p<0.05 was assumed to be significant.

In test [4] the target is T1, CB2 receptor. The test can be described thus: cAMP formation inhibition experiment through a cannabinoid receptor (forskolin stimulation), CB2. The test is classed as cell-based. Further details: expressed in transfected cells; host or cells: CHO cells.
Test [5] addresses T2, CB1 receptor. The experiment in a line: cAMP formation inhibition experiment through a cannabinoid receptor (forskolin stimulation), CB1. The test is classed as cell-based. Also on record: expressed in transfected cells; host or cells: CHO cells. Here is the method:
A compound being tested was added in the CHO cell which had mad human CB1 or CB2 receptor reveal and incubated for 15 minutes, and then forskolin (the final concentration 4 μM, and manufactured by SIGMA Corp.) was added and the mixture was incubated for 20 minutes. After the reaction had been stopped by adding 1M hydrochloric acid, the amount of cAMP in the supernatant was measured with the use of Cyclic AMP kit (made by the CIS Diagnostic Corp.).

The mark [6] stands for this setting: read-out: Agonist activity (nM) CB1.
[7] abbreviates: [3H]CP55940 0.5 nM, membrane preparation of CHO cells expressing CB2, Ki calculated from IC50, read-out: Binding activity (nM) CB2.
Where [8] appears, read: [3H]CP55940 0.5 nM, membrane preparation of CHO cells expressing CB1, Ki calculated from IC50, read-out: Binding activity (nM) CB1.

T1 sequence (P34972 whole entry): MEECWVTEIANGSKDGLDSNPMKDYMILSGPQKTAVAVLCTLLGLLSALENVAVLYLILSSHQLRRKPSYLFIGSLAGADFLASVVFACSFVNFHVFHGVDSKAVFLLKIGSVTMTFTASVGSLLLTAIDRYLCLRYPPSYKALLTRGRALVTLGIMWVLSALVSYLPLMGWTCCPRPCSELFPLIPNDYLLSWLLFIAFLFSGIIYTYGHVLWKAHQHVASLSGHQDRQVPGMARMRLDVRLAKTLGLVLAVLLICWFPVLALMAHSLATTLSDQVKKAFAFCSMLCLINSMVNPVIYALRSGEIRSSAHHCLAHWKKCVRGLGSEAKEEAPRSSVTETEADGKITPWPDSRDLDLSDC
T2 sequence (P21554 whole entry): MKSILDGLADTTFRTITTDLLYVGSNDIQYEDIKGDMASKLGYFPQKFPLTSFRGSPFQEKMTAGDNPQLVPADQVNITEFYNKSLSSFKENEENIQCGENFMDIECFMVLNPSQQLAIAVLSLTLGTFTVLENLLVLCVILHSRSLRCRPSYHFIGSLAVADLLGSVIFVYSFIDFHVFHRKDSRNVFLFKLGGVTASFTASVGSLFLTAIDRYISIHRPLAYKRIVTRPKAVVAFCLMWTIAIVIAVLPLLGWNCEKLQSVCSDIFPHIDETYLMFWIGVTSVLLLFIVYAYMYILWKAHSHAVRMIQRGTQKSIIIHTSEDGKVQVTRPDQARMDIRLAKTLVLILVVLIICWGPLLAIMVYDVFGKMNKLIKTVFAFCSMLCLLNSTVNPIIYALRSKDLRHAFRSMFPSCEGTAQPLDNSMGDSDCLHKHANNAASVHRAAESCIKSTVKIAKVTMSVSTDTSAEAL

Regarding `CCCCNC(=O)C1CCCN(C(=O)C(C)(C)NC(=O)c2cc3c(n(CC4CCCCC4)c2=O)CCCCCC3)C1` (centres unmarked) [Compound I-608], the Ki is 11 nM at CB2 receptor [1] and 527 nM at CB1 receptor [2]. Further, the inhibition in vivo at 3 % in test [3] (Mus musculus) came to 75%. For the same compound, the IC50 against CB2 receptor [4] was 3.5 nM; on CB1 receptor [5] (setting [6]), over 2000 nM.
Take `COC(=O)[C@@H](NC(=O)c1cc(C)c(C)n(Cc2ccc(F)cc2)c1=O)C(C)C` [Compound I-094]: the Ki at CB2 receptor [1] and on CB1 receptor [2] was under 2 nM each time. Further, the inhibition in vivo at 0.5 % in test [3] (Mus musculus) stood at 60%. The figures for the IC50 against CB2 receptor [4] and on CB1 receptor [5] (setting [6]) were under 2 nM and 9 nM, respectively.
As for `CC(C)(NC(=O)c1cc2c(n(CC3CCCCC3)c1=O)CCCCCC2)C(=O)N1CCC(C(=O)N2CCOCC2)CC1` [Compound I-617], the Ki was 6.6 nM at CB2 receptor [1] and 295 nM at CB1 receptor [2]. Further, in test [3] (Mus musculus), the inhibition in vivo at 1 % is 96%. Moreover, the IC50 amounted to 18 nM on CB2 receptor [4] and 79 nM on CB1 receptor [5] (setting [6]).
The corresponding values for `O=C(N[C@@H](C(=O)O)c1ccccc1)c1cc2c(n(CCCC(F)(F)F)c1=O)CCCCCC2` [Compound X-54] are under 2 nM, 93 nM, 100%, 3.7 nM and over 2000 nM.
Regarding `COCCn1c2c(cc(C(=O)NC3(CC(=O)O)CCCC3)c1=O)CCCCCC2` [XI-035], the Ki at CB2 receptor [1] is 31 nM; at CB1 receptor [2], over 2000 nM. For the same compound, the inhibition in vivo at 0.5 % in test [3] (Mus musculus) was 69%. The IC50 against CB2 receptor [4] is 47 nM; on CB1 receptor [5] (setting [6]) it was over 2000 nM.
As to `O=C(O)Cc1csc(NC(=O)c2cc3c(n(CC4CCCCC4)c2=O)CCCCCC3)n1` [IV-023], the Ki on CB2 receptor [1] (setting [7]) is 22 nM; at CB1 receptor [2] (setting [8]) it was 425 nM. Besides, the inhibition in vivo at 3 % in test [3] (applied as acetone solution 50 μL, concentration 3.0%, mouse, Compound 48/80) turned out to be 116%. The IC50 on CB2 receptor [4] (inhibition of forskolin (4 μM)-stimulated cAMP formation, CHO cells expressing human CB2, read-out: Agonist activity (nM) CB2) came to 11 nM; at CB1 receptor [5] (inhibition of forskolin (4 μM)-stimulated cAMP formation, CHO cells expressing human CB1, read-out: Agonist activity (nM) CB1), 398 nM.
On to `CCNC(=O)C1CCCN(C(=O)C(C)(C)NC(=O)c2cc3c(n(CC4CCCCC4)c2=O)CCCCCC3)C1` (centres unmarked) [Compound I-595], for which the Ki is 9.5 nM at CB2 receptor [1] and 354 nM on CB1 receptor [2] (setting [8]). In addition, the inhibition in vivo at 3 % in test [3] (Mus musculus) was determined as 108%. In addition, the IC50 against CB2 receptor [4] amounted to 30 nM; at CB1 receptor [5], 1210 nM.
Take `CCS(=O)(=O)NNC(=O)C(C)(C)NC(=O)c1cc2c(n(CC3CCCCC3)c1=O)CCCCCC2` [Compound I-596]: the Ki at CB2 receptor [1] is 22 nM; on CB1 receptor [2] (setting [8]), 341 nM. Also, in test [3] (Mus musculus), the inhibition in vivo at 3 % is 60%. The IC50 stood at 30 nM at CB2 receptor [4] and 312 nM against CB1 receptor [5].
Regarding `CC(C)(NC(=O)c1cc2c(n(CC3CCCCC3)c1=O)CCCCCC2)C(=O)NCC(N)=O` [Compound I-054], the Ki at CB2 receptor [1] (setting [7]) was 6 nM; on CB1 receptor [2] (setting [8]), 11 nM. Further, in test [3] (Mus musculus), the inhibition in vivo at 2 % was determined as 63%. In addition, the IC50 against CB2 receptor [4] was found to be 15 nM; on CB1 receptor [5] (setting [6]), 51 nM.
Take `CCc1c(C)cc(C(=O)NC(CC)(CC)CC(=O)O)c(=O)n1Cc1ccc(F)cc1` [Compound X-216]: the Ki was 3.3 nM at CB2 receptor [1] and 1770 nM at CB1 receptor [2] (setting [8]). In test [3] (Mus musculus), the inhibition in vivo at 1 % amounted to 106%. Further, the IC50 was 30 nM on CB2 receptor [4] and over 2000 nM against CB1 receptor [5].
In the case of `CNC(=O)CNC(=O)C(C)(C)NC(=O)c1cc2c(n(CC3CCCCC3)c1=O)CCCCCC2` [Compound I-590], the Ki on CB2 receptor [1] is 16 nM; at CB1 receptor [2], 66 nM. In test [3] (Mus musculus), the inhibition in vivo at 3 % was 75%. The IC50 was determined as 2.4 nM on CB2 receptor [4] and 51 nM at CB1 receptor [5] (setting [6]).
On to `CCCCC(CC(=O)O)NC(=O)c1cc2c(n(CC3CCCCC3)c1=O)CCCCCC2` (centres unmarked) [Compound X-67], for which the Ki at CB2 receptor [1] was 96 nM; on CB1 receptor [2] (setting [8]) it was over 2000 nM. Besides, the inhibition in vivo at 1 % in test [3] (Mus musculus) was 79%. The IC50 against CB2 receptor [4] is 40 nM; on CB1 receptor [5] it was over 2000 nM.
In the case of `CC(C)CCn1c2c(cc(C(=O)N[C@@H](C(=O)O)c3ccccc3)c1=O)CCCCCC2` [Compound I-424], the Ki at CB2 receptor [1] is 3 nM; at CB1 receptor [2] (setting [8]) it was 357 nM. The inhibition in vivo at 3 % in test [3] (Mus musculus) stood at 62%. The IC50 was 5.9 nM on CB2 receptor [4] and over 2000 nM against CB1 receptor [5].

The values above are taken from patent US8367666B2 (priority 2004, dated 2013).
